# From ChEMBL document CHEMBL1134752 (Bioorg Med Chem Lett, 2001)
# Experiments:
# [1] = target: T1, Prostaglandin G/H synthase 2 (Homo sapiens, UniProt P35354); assay: In vitro inhibition of Prostaglandin G/H synthase 2 in human whole blood assay; format: tissue-based
# T1 sequence (P35354 whole entry): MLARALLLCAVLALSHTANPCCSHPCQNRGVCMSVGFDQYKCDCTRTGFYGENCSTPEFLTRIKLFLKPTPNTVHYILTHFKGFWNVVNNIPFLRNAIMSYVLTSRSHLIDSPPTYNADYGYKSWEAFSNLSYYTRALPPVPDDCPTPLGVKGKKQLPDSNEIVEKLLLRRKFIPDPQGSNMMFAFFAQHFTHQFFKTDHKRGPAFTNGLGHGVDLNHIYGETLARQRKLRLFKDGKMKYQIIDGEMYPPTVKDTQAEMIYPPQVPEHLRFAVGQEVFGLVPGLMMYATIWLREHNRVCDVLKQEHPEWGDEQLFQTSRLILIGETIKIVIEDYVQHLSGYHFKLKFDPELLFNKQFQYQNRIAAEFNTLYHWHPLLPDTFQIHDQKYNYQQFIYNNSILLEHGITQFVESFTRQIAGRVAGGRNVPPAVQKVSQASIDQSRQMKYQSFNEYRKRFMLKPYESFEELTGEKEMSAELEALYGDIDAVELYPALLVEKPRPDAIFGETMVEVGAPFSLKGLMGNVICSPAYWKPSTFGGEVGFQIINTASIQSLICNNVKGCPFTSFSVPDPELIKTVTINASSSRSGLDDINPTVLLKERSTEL
# [2] = target: Prostaglandin G/H synthase 1 (Homo sapiens, UniProt P23219); assay: In vitro inhibition of Prostaglandin G/H synthase 1 in human whole blood assay; format: tissue-based
# [3] = Half-life in human; format: ADME, organism-based; conditions: in vivo
# Chain of Prostaglandin G/H synthase 1 (P23219 whole entry): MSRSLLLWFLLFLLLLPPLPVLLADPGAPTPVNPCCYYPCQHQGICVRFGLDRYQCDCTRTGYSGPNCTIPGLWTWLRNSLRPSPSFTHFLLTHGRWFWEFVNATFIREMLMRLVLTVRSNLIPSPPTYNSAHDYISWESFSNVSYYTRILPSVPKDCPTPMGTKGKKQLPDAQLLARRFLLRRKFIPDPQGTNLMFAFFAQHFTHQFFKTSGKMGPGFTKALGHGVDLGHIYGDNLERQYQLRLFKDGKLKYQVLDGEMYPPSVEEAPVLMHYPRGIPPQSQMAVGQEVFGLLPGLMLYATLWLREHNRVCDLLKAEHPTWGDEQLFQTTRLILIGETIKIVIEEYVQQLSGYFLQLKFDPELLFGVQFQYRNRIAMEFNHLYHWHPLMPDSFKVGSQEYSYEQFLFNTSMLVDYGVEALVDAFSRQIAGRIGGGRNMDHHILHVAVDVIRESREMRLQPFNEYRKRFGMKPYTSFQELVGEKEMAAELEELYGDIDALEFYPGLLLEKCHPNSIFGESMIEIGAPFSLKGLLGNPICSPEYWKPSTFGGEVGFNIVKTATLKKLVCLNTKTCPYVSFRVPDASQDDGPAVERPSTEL
Structure (SMILES),IC50 [1] [µM],IC50 [2] [µM],half-life [3] [h]
CS(=O)(=O)c1ccc(-c2cc(Cl)cnc2-c2ccc(CO)nc2)cc1,> 33,> 100,–
CS(=O)(=O)c1ccc(-c2cc(Cl)cnc2-c2ccc(C(=O)O)nc2)cc1,21,> 100,–
CS(=O)(=O)c1ccc(-c2cc(Cl)cnc2-c2ccc(CO[C@@H]3O[C@@H](C(=O)O)[C@@H](O)[C@H](O)[C@@H]3O)nc2)cc1,> 33,> 100,–
Cc1ccc(-c2ncc(Cl)cc2-c2ccc(S(C)(=O)=O)cc2)c[n+]1[O-],18,> 100,–
CC(C)OC1=C(c2ccc(S(C)(=O)=O)cc2)C(C)(C)OC1=O,–,–,64
Cc1ccc(-c2ncc(Cl)cc2-c2ccc(S(C)(=O)=O)cc2)cn1 [ETORICOXIB],–,> 100,–
